This is an account of results in paper PMC12530846, “Development of Novel Anticancer Pyrazolopyrimidinones Targeting Glioblastoma” (Chemmedchem, 2025).

Some results are limits rather than exact numbers.

As a reminder, the IC50 is the concentration that gives 50% inhibition. Higher therefore signals weaker potency in that assay.

The subject of one data set is HEK293 cells. Kind of data set: MTT cell viability assay, noncancerous HEK293 cells, 5 days treatment. It counts as cell-based, human. The settings on record: 5 days treatment, 100–0 µM. The method, then: (§1) Dose–response curves for each of the pyrazolo[1,5‐α]pyrimidinones were performed to determine the cytotoxic effect of the compounds on a cancerous, U‐251 MG cell line and a noncancerous, HEK293 cell line. The synthesized pyrazolopyrimidinones were dissolved in DMSO (Merck) to obtain a stock solution which was stored at −20 °C. […] U‐251 MG and HEK293 cells were seeded at a density of 2 x 10^3 cells per well (100 μL) in a 96‐well plate (Sarstedt) and incubated for 24 h prior to each treatment to allow for cell adhesion. The stock solution was diluted in media to working concentrations of 100, 75, 50, 25, 10, 5, and 0.1 μM. Media on the seeded cells was then replaced with the working concentrations of the compound or the controls in a 96‐well plate (100 μL). The treated plate was incubated at 37 °C in the humidified incubator for 5 days. Cell viability was assessed after 5 days using the MTT assay. Dose–response curves were then plotted relative to the positive control whereby cells were treated 20% DMSO and a negative control whereby cells were maintained in fresh DMEM.
(§2) To determine the extent of the cytotoxic effect of the pyrazolopyrimidinone on each cell line, the cell viability at each working concentration was determined via the MTT assay (Merck). The working solution of MTT used was 5 mg MTT per 1 ml of PBS diluted in 9 ml of media. After 5 days of incubation, the treatment was removed from each of the wells and replaced with 100 μL of fresh MTT solution. The plate was then incubated for 3 h at 37 °C in a humidified incubator to allow the reduction of the yellow tetrazolium salt to purple formazan crystals. After the incubation, the MTT solution was removed from the wells and replaced with 100 μL of DMSO for 15 min to dissolve the formazan crystals. The absorbance was read at 570 nm using a spectrophotometric microplate reader (Thermo Fisher Scientific).
(§3) Each of the experiments was performed at least three independent times, with a minimum of six technical replicates per experiment. Statistical analysis was carried out using GraphPad Prism version 8.0.0 (GraphPad Softwares, Inc.). Curve fitting and the IC50 values were obtained through the dose–response curves using nonlinear regression. To determine if the dose–response curves were statistically distinct and not overlapping, extra sum‐of‐squares F‐test was used, and a p‐value was obtained. The effect of compound treatment on both cell lines was statistically compared via two‐way ANOVA with Tukey's post‐test. The CytExpert (Beckman Coulter) software was used for flow cytometry analysis. Graphs represent the % dead cells whereby the total number of dead cells was divided by the total cell population. The statistical significance of the flow cytometry results was determined via one‐way analysis of variance (ANOVA) with Dunnett's T3 multiple comparison post‐test. Data is presented as the mean ± standard error of mean (SEM). Summary of results from statistical analysis reports p‐values as follows: ≥0.05 (ns), 0.01–0.05 (*), 0.001–0.01 (**), […], and <0.0001(****).
A general note: Tetrazolium assays rely on reduction of a dye to a coloured formazan, in cell work by metabolically active cells.
Consider `O=c1cc(-c2cc(C(F)(F)F)cc(C(F)(F)F)c2)[nH]c2cc(-c3ccc(Cl)cc3)nn12` [Compound 8], for which the IC50 was 52.4 µM.

Consider `COc1ccc(-c2cc3[nH]c(-c4cc(C(F)(F)F)cc(C(F)(F)F)c4)cc(=O)n3n2)cc1` [Compound 11], for which the IC50 amounted to 29.5 µM.

Regarding `O=c1cc(-c2cc(C(F)(F)F)cc(C(F)(F)F)c2)[nH]c2cc(-c3cccc(Cl)c3)nn12` [Compound 12], the half-inhibitory concentration (IC50) worked out at 29.5 µM.

Staying with this data set, now noted: 5 days, up to 100 µM, threshold 50 µM.
Take `O=c1cc(-c2cc(C(F)(F)F)cc(C(F)(F)F)c2)[nH]c2cc(-c3ccc(Cl)cc3)nn12` [Compound 8]: the “cytotoxicity / biological response in HEK293, in words” value (from here on “cytotoxicity / biological response”) is on record as “did not elicit any biological response”.

As to `O=c1cc(-c2cc(C(F)(F)F)cc(C(F)(F)F)c2)[nH]c2cc(-c3ccco3)nn12` [Compound 13], the “cytotoxicity / biological response” value is “no cytotoxicity”.

Take `Cc1cc(=O)n2nc(-c3ccccc3)cc2[nH]1` [Compound 14]: the “cytotoxicity / biological response” value is “did not elicit a biological effect”.

Still in this data set, the particulars now being: Homo sapiens, HEK293, 120 h, 5 days treatment, 100–0 µM.
Turning to `CC(C)c1cc2[nH]c(-c3ccccc3)cc(=O)n2n1` [Compound 2], 9.8 µM corresponded to half-maximal inhibition (IC50).

`Cc1cc(C)cc(-c2cc(=O)n3nc(C(C)C)cc3[nH]2)c1` [Compound 3] returned an IC50 of 6.52 µM.

Turning to `CC(C)c1cc2[nH]c(-c3cc(C(F)(F)F)cc(C(F)(F)F)c3)cc(=O)n2n1` [Compound 4], the IC50 stood at 7.38 µM.

`O=c1cc(-c2cc(C(F)(F)F)cc(C(F)(F)F)c2)[nH]c2cc(-c3ccc(F)cc3)nn12` [Compound 6] yielded an IC50 of 68.2 µM.

`O=c1cc(-c2cc(C(F)(F)F)cc(C(F)(F)F)c2)[nH]c2cc(-c3ccc(Cl)cc3)nn12` [Compound 8] had an IC50 of more than 50 µM.

On to `COc1ccc(-c2cc3[nH]c(-c4cc(C(F)(F)F)cc(C(F)(F)F)c4)cc(=O)n3n2)cc1` [Compound 11], for which the IC50 was less than 30 µM.

For the molecule `O=c1cc(-c2cc(C(F)(F)F)cc(C(F)(F)F)c2)[nH]c2cc(-c3cccc(Cl)c3)nn12` [Compound 12], the IC50 is less than 30 µM.

Molecule `CC(C)c1cc2[nH]c(C(C)C)cc(=O)n2n1` [Compound 18] gave an IC50 of 118 µM.

Take `O=c1cc(-c2cc(C(F)(F)F)cc(C(F)(F)F)c2)[nH]c2cc(-c3cccc([N+](=O)[O-])c3)nn12` [Compound 23]: the IC50 amounted to 60.3 µM.

Another data set has as its system U‐251 MG and HEK293 cells. Kind of data set: Statistical comparison of dose–response in U‐251 MG versus HEK293 (selectivity, HIT criteria). It counts as cell-based, human. The settings on record: HEK293 IC50 higher than U‐251 MG IC50, U‐251 MG IC50 below 50 µM.
Regarding `Cc1cc(=O)n2nc(C(C)C)cc2[nH]1` [Compound 1], the “Selectivity for cancer cells with IC50 < 50 [µM]‐Yes/No” value (shortened to “Selectivity … [µM]‐Yes/No”) is recorded as “No”.

Regarding `CC(C)c1cc2[nH]c(-c3ccccc3)cc(=O)n2n1` [Compound 2], the “Selectivity … [µM]‐Yes/No” value is “No”.

With `Cc1cc(C)cc(-c2cc(=O)n3nc(C(C)C)cc3[nH]2)c1` [Compound 3], the “Selectivity … [µM]‐Yes/No” value was “No”.

`CC(C)c1cc2[nH]c(-c3cc(C(F)(F)F)cc(C(F)(F)F)c3)cc(=O)n2n1` [Compound 4]: the “Selectivity … [µM]‐Yes/No” value is reported as “No”.

For `O=c1cc(-c2cc(C(F)(F)F)cc(C(F)(F)F)c2)[nH]c2cc(-c3ccc(F)cc3)nn12` [Compound 6], the “Selectivity … [µM]‐Yes/No” value was “No”.

`O=c1cc(-c2cc(C(F)(F)F)cc(C(F)(F)F)c2)[nH]c2cc(-c3ccc(Cl)cc3)nn12` [Compound 8]: the “Selectivity … [µM]‐Yes/No” value is “Yes”.

With `COc1ccc(-c2cc3[nH]c(-c4cc(C(F)(F)F)cc(C(F)(F)F)c4)cc(=O)n3n2)cc1` [Compound 11], the “Selectivity … [µM]‐Yes/No” value is given as “No”.

With `CC(C)c1cc2[nH]c(C(C)C)cc(=O)n2n1` [Compound 18], the “Selectivity … [µM]‐Yes/No” value is reported as “No”.

With `O=c1cc(-c2cc(C(F)(F)F)cc(C(F)(F)F)c2)[nH]c2cc(-c3cccc([N+](=O)[O-])c3)nn12` [Compound 23], the “Selectivity … [µM]‐Yes/No” value is listed as “Yes”.

Staying with this data set, now noted: HIT criteria and statistical testing, Table S1.
With `COc1ccc(-c2cc3[nH]c(-c4cc(C(F)(F)F)cc(C(F)(F)F)c4)cc(=O)n3n2)cc1` [Compound 11], the “All criteria met -Yes/No” value was “No”.

As to `O=c1cc(-c2cc(C(F)(F)F)cc(C(F)(F)F)c2)[nH]c2cc(-c3cccc(Cl)c3)nn12` [Compound 12], the “All criteria met -Yes/No” value is recorded as “No”.

Regarding `O=c1cc(-c2cc(C(F)(F)F)cc(C(F)(F)F)c2)[nH]c2cc(-c3ccco3)nn12` [Compound 13], the “All criteria met -Yes/No” value is on record as “No”.

On to `Cc1cc(=O)n2nc(-c3ccccc3)cc2[nH]1` [Compound 14], for which the “All criteria met -Yes/No” value was “No”.

Consider `Cc1cc2[nH]c(C)cc(=O)n2n1` [Compound 16], for which the “All criteria met -Yes/No” value was “No”.

Regarding `CC(C)(C)c1cc2[nH]c(-c3ccccc3)cc(=O)n2n1` [Compound 17], the “All criteria met -Yes/No” value is recorded as “No”.

As to `CC(C)c1cc2[nH]c(C(C)C)cc(=O)n2n1` [Compound 18], the “All criteria met -Yes/No” value is on record as “No”.

In the case of `CCc1cc(=O)n2nc(C(C)C)cc2[nH]1` [Compound 19], the “All criteria met -Yes/No” value is “No”.

For the molecule `O=c1cc(-c2cc(C(F)(F)F)cc(C(F)(F)F)c2)[nH]c2cc(-c3cccc(C(F)(F)F)c3)nn12` [Compound 20], the “All criteria met -Yes/No” value was “No”.

In a further data set the test system is U‐251 MG cells. In words: MTT cell viability assay, U‐251 MG glioblastoma cells, 5 days treatment. It is filed as cell-based, human. The settings on record: 5 days treatment, 100–0 µM. As for the experimental part: as §1, §2, §3
As for `CC(C)c1cc2[nH]c(-c3ccccc3)cc(=O)n2n1` [Compound 2], the IC50 was found to be 20.6 µM.

For the molecule `CC(C)c1cc2[nH]c(-c3cc(C(F)(F)F)cc(C(F)(F)F)c3)cc(=O)n2n1` [Compound 4], the IC50 turned out to be 14 µM.

As to `O=c1cc(-c2cc(C(F)(F)F)cc(C(F)(F)F)c2)[nH]c2cc(-c3ccc(Cl)cc3)nn12` [Compound 8], the IC50 amounted to 17.3 µM.

As to `O=c1cc(-c2cc(C(F)(F)F)cc(C(F)(F)F)c2)[nH]c2cc(-c3cccc([N+](=O)[O-])c3)nn12` [Compound 23], it took 23.2 µM to reach half-maximal inhibition (IC50).

The data set is the same for the next values; noted with them: 5 days, up to 100 µM.
With `O=c1cc(-c2cc(C(F)(F)F)cc(C(F)(F)F)c2)[nH]c2cc(-c3ccco3)nn12` [Compound 13], the “cytotoxicity / biological effect on U‐251 MG, in words” value was “no cytotoxicity”.

`Cc1cc(=O)n2nc(-c3ccccc3)cc2[nH]1` [Compound 14]: the “cytotoxicity / biological effect on U‐251 MG, in words” value is “did not elicit a biological effect”.

Staying with this data set, now noted: Homo sapiens, U-251, 120 h, 5 days treatment, 100–0 µM.
The molecule `CC(C)c1cc2[nH]c(-c3ccccc3)cc(=O)n2n1` [Compound 2] yielded an IC50 of less than 20 µM.

The molecule `CC(C)c1cc2[nH]c(-c3cc(C(F)(F)F)cc(C(F)(F)F)c3)cc(=O)n2n1` [Compound 4] registered an IC50 of less than 20 µM.

`O=c1cc(-c2cc(C(F)(F)F)cc(C(F)(F)F)c2)[nH]c2cc(-c3ccc(F)cc3)nn12` [Compound 6] had an IC50 of 52.2 µM.

`O=c1cc(-c2cc(C(F)(F)F)cc(C(F)(F)F)c2)[nH]c2cc(-c3ccc(Cl)cc3)nn12` [Compound 8]: the IC50 is less than 30 µM.

`COc1ccc(-c2cc3[nH]c(-c4cc(C(F)(F)F)cc(C(F)(F)F)c4)cc(=O)n3n2)cc1` [Compound 11] gave an IC50 of 23.5 µM.

`O=c1cc(-c2cc(C(F)(F)F)cc(C(F)(F)F)c2)[nH]c2cc(-c3cccc(Cl)c3)nn12` [Compound 12] showed an IC50 of 21.7 µM.

Molecule `Cc1cc(=O)n2nc(-c3ccccc3)cc2[nH]1` [Compound 14] came in with an IC50 of 81.5 µM.

With `CC(C)(C)c1cc2[nH]c(-c3ccccc3)cc(=O)n2n1` [Compound 17], the IC50 came to 76.6 µM.

The molecule `CC(C)c1cc2[nH]c(C(C)C)cc(=O)n2n1` [Compound 18] had an IC50 of 170 µM.

Molecule `CCc1cc(=O)n2nc(C(C)C)cc2[nH]1` [Compound 19] had an IC50 of 154 µM.

On to `O=c1cc(-c2cc(C(F)(F)F)cc(C(F)(F)F)c2)[nH]c2cc(-c3cccc(C(F)(F)F)c3)nn12` [Compound 20], for which the IC50 turned out to be 31 µM.

In turn, `O=c1cc(-c2cc(C(F)(F)F)cc(C(F)(F)F)c2)[nH]c2cc(-c3cccc([N+](=O)[O-])c3)nn12` [Compound 23] had an IC50 of 29.6 µM.
